Laboratory results taken from US9578880B2, “Acetyl co-enzyme A carboxylase herbicide resistant plants” (Colorado Wheat Research Foundation, Inc., priority 2011, dated 2017).

Tests used:
[1] = tested on: quizalofop tolerant mutant wheat accessions; test: Cross-resistance study, plant survival after other ACCase herbicides (quizalofop tolerant mutants); format: in vivo, Triticum aestivum L.; details: 28 DAT
Method: (§1) A cross-resistance study was conducted within the ACCase herbicide mode of action using herbicides normally lethal to wheat. Clethodim, sethoxydim, and fluazifop were used at rates of 65, 264, and 361 g ai ha^−1, plus a treatment of clethodim and 10.5 g ai ha^−1 quizalofop. Seven DAT the tops of plants were cut off above the newest above-ground growing point. Binomial evaluation of plant survival was performed 28 DAT. Tolerance of quizalofop mutants to clethodim and sethoxydim was low (Table 1). The presence of any cross tolerance presents evidence that combining multiple homologous resistant ACCase genes into a single plant could lead to resistance to additional herbicides. At this stage only a third of the total ACCase in the plant would have a mutation and contain tolerance to ACCase inhibitors if the mutation is target-site-based.

[2] = tested on: non-mutant Hatcher winter wheat (Accession 0); test: Cross-resistance study, plant survival after other ACCase herbicides (non-mutant check); format: in vivo, Triticum aestivum L.; details: Accession 0 (non-mutant check); clethodim 65, sethoxydim 264, fluazifop 361 g ai ha^-1, clethodim + 10.5 g ai ha^-1 quizalofop; 28 DAT
Method: as §1

[3] = tested on: quizalofop-tolerant wheat accessions vs non-mutant Hatcher wheat; test: Visual evaluation of injury to quizalofop; format: in vivo, Triticum aestivum L.; details: 21.05 g ai ha^-1; 28 DAT; nearly all of 18 quizalofop-tolerant accessions
Method: 18 quizalofop-tolerant accessions were treated with 21.05 g ai ha^−1 quizalofop, a discriminating dose based on previous studies. Plants were evaluated 28 days after treatment (DAT) for visible injury to quizalofop on a scale of 0 to 100%, with 0 being no injury and 100 being complete desiccation. Nearly all accessions evaluated in this study appeared more tolerant to quizalofop than non-mutant Hatcher wheat (FIG. 5). The accessions contained few completely dead plants, with the exception of the one accession not different than the background.

[4] = tested on: ACCase, A genome nucleotide substitution (Ala2004Val); test: In-vitro ACCase enzyme assay; format: biochemical, Triticum aestivum L.
Method: (§2) An in-vitro enzyme assay was conducted to observe ACCase in conjunction with quizalofop directly to determine if the presence of ACCase mutations decreases the ability of herbicides to inhibit ACCase activity. Four quizalofop concentrations of 0.1, 1, 10, and 100 μM were included in the assay along with a non-treated control. The experiment included four accessions which included a representative from the three mutations detected and non-mutagenized wheat. […] Calculated at the I25 level, the resistant to susceptible value for the A genome was 4.57, the B genome was 3.57 and the D genome was 10.86.

[5] = tested on: ACCase of non-mutagenized Hatcher winter wheat; test: In-vitro ACCase enzyme assay; format: biochemical, Triticum aestivum L.; details: 0.1, 1, 10, 100 μM
Method: as §2

[6] = tested on: ACCase, B genome nucleotide substitution (Ala2004Val); test: In-vitro ACCase enzyme assay; format: biochemical, Triticum aestivum L.
Method: as §2

[7] = tested on: ACCase, D genome nucleotide substitution (Ala2004Val); test: In-vitro ACCase enzyme assay; format: biochemical, Triticum aestivum L.; details: for ACCase tolerance compared with background: D genome substitution
Method: as §2

[8] = Accession 1, clethodim 65, sethoxydim 264, fluazifop 361 g ai ha^-1, clethodim + 10.5 g ai ha^-1 quizalofop

| SMILES | survival after application of ACCase herbicide [1, 8] [%] | survival after application of ACCase herbicide ([1]; Accession 2, same rates) [%] | survival after application of ACCase herbicide ([1]; Accession 3, same rates) [%] | survival after application of ACCase herbicide ([1]; Accession 4, same rates) [%] | survival after application of ACCase herbicide ([1]; Accession 5, same rates) [%] | survival after application of ACCase herbicide ([1]; Accession 6, same rates) [%] | survival after application of ACCase herbicide ([1]; Accession 7, same rates) [%] | survival after application of ACCase herbicide ([1]; Accession 8, same rates) [%] | survival after application of ACCase herbicide ([1]; Accession 9, same rates) [%] | survival after application of ACCase herbicide ([1]; Accession 10, same rates) [%] | survival after application of ACCase herbicide ([1]; Accession 11, same rates) [%] | survival after application of ACCase herbicide ([1]; Accession 12, same rates) [%] | survival after application of ACCase herbicide ([1]; Accession 13, same rates) [%] | survival after application of ACCase herbicide ([1]; Accession 14, same rates) [%] | survival after application of ACCase herbicide ([1]; Accession 15, same rates) [%] | survival after application of ACCase herbicide ([1]; Accession 16, same rates) [%] | survival after application of ACCase herbicide ([1]; Accession 17, same rates) [%] | survival after application of ACCase herbicide [2] [%] | further results |
| --- | --- | --- | --- | --- | --- | --- | --- | --- | --- | --- | --- | --- | --- | --- | --- | --- | --- | --- | --- |
| CCC/C(=N\OCC)C1=C(O)CC(CC(C)SCC)CC1=O (stereo not shown) [Sethoxydim, sethoxydim] | 0 | 0 | 0 | 0 | 0 | 0 | 0 | 0 | 0 | 0 | 8 | 8 | 0 | 0 | 0 | 0 | 0 | 0 | Tolerance of quizalofop mutants (cross-resistance) ([1]; clethodim 65, sethoxydim 264 g ai ha^-1): low |
| CCSC(C)CC1CC(=O)C(/C(CC)=N/OC/C=C/Cl)=C(O)C1 (stereo not shown) [Clethodim, clethodim] | 10 | 0 | 0 | 0 | 0 | 0 | 0 | 25 | 17 | 0 | 0 | 17 | 0 | 0 | 0 | 0 | 0 | 0 | – |
| CC(Oc1ccc(Oc2cnc3cc(Cl)ccc3n2)cc1)C(=O)O (stereo not shown) [quizalofop] | – | – | – | – | – | – | – | – | – | – | – | – | – | – | – | – | – | – | visible injury, tolerance of accessions compared with non-mutant Hatcher wheat [3]: more tolerant; ACCase tolerance compared with background ([4]; 100 μM, A genome substitution): higher than background tolerance; resistant to susceptible value calculated at the I25 level ([4]; A genome mutant vs non-mutagenized wheat): 4.57; sensitivity of ACCase compared with the mutant accessions [5]: greater sensitivity; ACCase tolerance compared with background ([6]; 10 μM, B genome substitution): higher than background levels of tolerance; resistant to susceptible value calculated at the I25 level ([6]; B genome mutant vs non-mutagenized wheat): 3.57; ACCase tolerance compared with background ([7]; 10 μM): higher than background levels of tolerance; ACCase tolerance compared with background ([7]; 100 μM): higher than background tolerance; resistant to susceptible value calculated at the I25 level ([7]; D genome mutant vs non-mutagenized wheat): 10.86 |
| CC(Oc1ccc(Oc2ccc(C(F)(F)F)cn2)cc1)C(=O)O (stereo not shown) [Fluazifop, fluazifop] | 0 | 0 | 0 | 0 | 0 | 0 | 0 | 0 | 0 | 0 | 0 | 0 | 0 | 0 | 0 | 0 | 0 | 0 | – |
